From patent US11668709B2, “System for monitoring post-translational modification of protein using bio-sensor with gap and manufacturing method for bio-sensor” (KOREA INSTITUTE OF SCIENCE AND TECHNOLOGY, priority 2018, dated 2023)

How the values were obtained:
Assay type in all cases: biochemical
O-GlcNAcase [1] = assay: Verification Experiment 6: impedance of tau protein with second or third antibody, with and without thiamet G; details: 5 pg/ml tau protein
Description: (§1) Tau protein at a concentration of 5250 ng/mL was diluted 1/10 at various concentrations (0.5 fg/mL to 50 pg/mL) with 0.1% PBST and treated with Thiamet G treatment inhibiting O-GlcNAcase or BZX2 promoting O-GlcNAcase as needed.
(§2) The impedance Z was measured with and without the substance that inhibits O-GlcNAcase, using the system for monitoring post-translational modification of protein according to the embodiment of the present disclosure.
(a) 5 pg/ml of tau protein, (b) 5 pg/ml of tau protein+second antibody (AT-8 antibody), and (c) 5 pg/ml of tau protein+third antibody (O-g Antibody) were introduced into the sensor 100, respectively, and then impedance Z was measured for PBS, Neg, Thiamet G untreated, and 100 μM of thiamet G treated samples, respectively.

O-GlcNAcase [2] = assay: Verification Experiment 4: impedance with and without O-GlcNAcase inhibitor, third antibody (O-g Antibody); details: 100 μM thiamet G treated compared to untreated; tau protein 0.5-524 fg/ml; O-glycosylation site antibody
Description: as §1, §2

O-GlcNAcase [3] = assay: Verification Experiment 5: impedance with O-GlcNAcase inhibitor or promoter, second antibody (AT-8 antibody); details: 100 μM BZX2 treated; tau protein 0.5-500 fg/ml; AT-8 phosphorylation site antibody
Description: as §1
The impedance Z was measured for when treated with a substance that inhibits O-GlcNAcase; and when treated with a substance that promotes O-GlcNAcase of O-glycosylated tau protein, using the system for monitoring post-translational modification of protein according to the embodiment of the present disclosure.
A sample containing the second conjugate S2 (microbead+first antibody+tau protein) and an antibody (second antibody, AT-8 antibody) that can bind to the phosphorylation site of tau protein was introduced into the sensor 100, and impedance Z was measured for each of the following: (a) treated with 100 μM of thiamet G which is a substance that inhibits O-GlcNAcase; and (b) treated with 100 μM of BZX2 which is substance that promotes O-GloNAcase, for respective concentrations (0.5 fg/ml, 5 fg/ml, 50 fg/ml, and 500 fg/ml) of tau protein.
The impedance Z was measured from each sample when the first sample containing the second conjugate S2 was introduced into the sensor 100 and when the second sample containing the third conjugate S3 was introduced into the sensor 100.

Compound	impedance Z2 measured as the second antibody (AT-8 antibody) was added (O-GlcNAcase [1]; 100 μM thiamet G treated (untreated 33.65 MΩ)) [MΩ]	impedance Z3 measured as the third antibody (O-g antibody) was added (O-GlcNAcase [1]; 100 μM thiamet G treated (untreated 38.27 MΩ)) [MΩ]	difference in impedance (Z1−Z3) (O-GlcNAcase [2])	impedance difference (Z1−Z2) (O-GlcNAcase [3])
CCN=C1N[C@@H]2[C@@H](O)[C@H](O)[C@@H](CO)O[C@@H]2S1 [thiamet G]	37.65	35.0	greater	–
BZX2	–	–	–	increases as the concentration of tau protein increases
